{
  "source": "patent US7781418B2",
  "about": "“Composition for treating bone disorders” (Isis Innovation Ltd., priority 2006, dated 2010)",
  "key": {"[1]": {"target": "T1, farnesyl pyrophosphate synthase (FPPS) (Homo sapiens, UniProt P14324)", "T1 sequence (P14324 1-419)": "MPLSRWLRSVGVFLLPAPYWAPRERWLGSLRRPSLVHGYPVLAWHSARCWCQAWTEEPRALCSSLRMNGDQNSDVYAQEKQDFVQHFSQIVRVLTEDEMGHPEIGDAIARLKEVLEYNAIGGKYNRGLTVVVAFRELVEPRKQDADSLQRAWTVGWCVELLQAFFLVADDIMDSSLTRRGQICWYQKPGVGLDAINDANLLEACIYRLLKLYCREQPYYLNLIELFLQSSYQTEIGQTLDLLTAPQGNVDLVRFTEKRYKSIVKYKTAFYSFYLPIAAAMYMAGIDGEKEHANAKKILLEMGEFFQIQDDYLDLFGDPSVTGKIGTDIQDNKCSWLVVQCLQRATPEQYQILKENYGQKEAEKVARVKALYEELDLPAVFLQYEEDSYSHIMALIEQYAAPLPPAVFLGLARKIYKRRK", "experiment": "farnesyl pyrophosphate synthase (FPPS) inhibition assay", "assay_type": "biochemical", "method": "The activity of the racemic mixture, is approximately 42 nM."}, "[2]": {"system": "bone resorption and mineralization", "experiment": "Schenk Model: in vivo bone resorption inhibition and mineralization inhibition, lowest effective dose", "conditions": "for Lowest Effective Dose, Bone Mineral Density (BMD) / Lowest Effective Dose, Bone Mineral Content (BMC): head-to-head comparison of all three compounds; for Lowest Effective Dose, Bone Mineral Content (BMC): highest dose tested 0.1"}},
  "note": "pIC50: −log10 of the molar value. Counter-ions that a name gives are not always drawn.",
  "data": [
    {"smiles": "O=P(O)(O)C1(P(=O)(O)O)C[C@@H]2CCCN[C@@H]2C1", "note": "[1R,6S Isomer, (1R,6S)-2-Azabicyclo[4.3.0]nonane-8,8-diphosphonic acid hydrochloride salt]", "values": [
      {"measurement": "pIC50", "setting": "[1]", "value": 7.82},
      {"measurement": "activity in the Schenk assay relative to enantiomer (1S,6R) and racemic mixture", "setting": "[2]; compared with (1S,6R) enantiomer and corresponding racemic mixture", "value": "more active"},
      {"measurement": "Lowest Effective Dose, Bone Mineral Density (BMD)", "setting": "[2]", "value": 0.01, "unit": "mg P/kg"},
      {"measurement": "Lowest Effective Dose, Bone Mineral Content (BMC)", "setting": "[2]", "value": 0.01, "unit": "mg P/kg"}
    ]},
    {"smiles": "O=P(O)(O)C1(P(=O)(O)O)CC2CCCNC2C1", "note": "(racemic) [Racemic Mixture]", "values": [
      {"measurement": "pIC50", "setting": "[1]", "value": "~7.38"},
      {"measurement": "Lowest Effective Dose, Bone Mineral Density (BMD)", "setting": "[2]", "value": 0.03, "unit": "mg P/kg"},
      {"measurement": "Lowest Effective Dose, Bone Mineral Content (BMC)", "setting": "[2]", "value": 0.03, "unit": "mg P/kg"}
    ]},
    {"smiles": "O=P(O)(O)C1(P(=O)(O)O)C[C@H]2CCCN[C@H]2C1", "note": "[1S,6R Isomer]", "values": [
      {"measurement": "pIC50", "setting": "[1]", "value": 6.44},
      {"measurement": "Lowest Effective Dose, Bone Mineral Density (BMD)", "setting": "[2]", "value": 0.1, "unit": "mg P/kg"},
      {"measurement": "Lowest Effective Dose, Bone Mineral Content (BMC)", "setting": "[2]", "value": ">0.1^2^ mg P/kg"}
    ]}
  ]
}
